Assay results from PubChem BioAssay AID179 (DTP/NCI, 2004).
Calls of active or inactive are those of the source.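 How the source made its calls: active means compounds giving half or more protection of infected cells from virus-caused growth loss, again on retest; inactive means the rest.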

Tested on: CEM cells HIV-1 protection, formazan growth assay
Experiment: NCI AIDS Antiviral Assay
Settings: for IC50: measured here: growth of uninfected CEM cells
In short: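 Five concentrations of each compound were applied to infected and uninfected human CEM cells. Protection from HIV-1 was judged from growth measured with a soluble formazan assay.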

Compound	EC50 [µM]	IC50 [µM]	outcome
CCC(C)C(=O)O[C@H]1C(=O)O[C@@H]2C[C@H]3C(C)=CC(=O)[C@@H](O)[C@]3(C)[C@H]3[C@@H](O)[C@H](O)[C@@]4(C)OC[C@]32[C@@H]14 (stereo partly drawn)	> 5.25	0.00891	–
CN(NC(=O)/C(=C/c1cc(Cl)cc(Cl)c1O)NC(=O)c1ccccc1)c1cnn(-c2ccccc2)c(=O)c1Cl	> 200	37.2	–
Brc1ccc(N=Nc2ccc3ccccc3n2)cc1	> 93.3	91.2	–
CCOC(=O)C1CC2OC2CC1C(=O)OCC (stereo not drawn)	> 200	> 200	–
NS(=O)(=O)c1ccccc1C(=O)N/N=C(\c1nc2ccc([N+](=O)[O-])cc2[nH]c1=O)C(O)c1ccc([N+](=O)[O-])cc1 (stereo not drawn)	> 120	107	–
COc1cccc(C=C2C(=O)c3ccccc3C2=O)c1	–	–	inactive
CC(C)N(C(=O)C12C3C4C5C3C1(C#N)C5C42)C(C)C (stereo not drawn)	> 195	> 195	–
N.N.N.N.N.O=C([O-])c1nn[n-]n1.[Cl-].[Co+3]	> 16.2	> 16.2	–
Cc1cc(=O)n2nc(CSc3nnc(Sc4cc(O)ccc4O)s3)sc2n1	> 200	28.8	–
CCCCCCNC(=O)C1=C(C)NC(C)=C(C(=O)NCCCCCC)C1	–	89.1	inactive
O=c1nc2ccccc2c2n1CCN2	> 95.5	> 95.5	–
CCOC(=O)c1ccc(C(=O)C(C(C)=O)C(=O)OC(C)(C)C)n1C (stereo not drawn)	43.7	74.1	–
CCC/C(=N/NC(=O)C(N)=O)C(CC)C(=O)CCC(=O)N(Cc1ccccc1)Cc1ccccc1 (stereo not drawn)	> 525	> 525	–
CN(C)C=Nc1c2c(nc3ccccc13)CCCC2	> 200	> 200	–
CC(=O)c1cc2ccccc2oc1=O	> 138	> 138	–
Cn1/c(=N\N=C2\C=C3CCCCC3(C)CC2)sc2ccccc21 (stereo not drawn)	> 200	155	–
C/C(CC(O)(C(F)(F)F)C(F)(F)F)=N\N	> 200	> 200	–
COc1ccc2nc3cc([N+](=O)[O-])ccc3c(NCCCN(C)C)c2c1	> 2	0.38	–
COC(=O)C1(C(=O)OC)CC2=C(S(=O)(=O)c3ccccc3)C[C@H](C#N)[C@H]2C1	> 200	58.9	–
O=C(OCCO)c1c(Cl)c(Cl)c(Cl)c(Cl)c1-c1c2cc(Br)c(=O)c(Br)c-2oc2c(Br)c(O)c(Br)cc12	> 61.7	20.9	–

Compound	EC50 [µM]	IC50 [µM]	outcome
C[C@]12C=CC(=O)C=C1CC[C@@H]1[C@@H]2CC[C@]2(C)OC(=O)CC[C@@H]12	> 832	224	–
CC1(C)[C@@H]2C[C@H]1c1cnc(-c3ccccn3)cc1[C@H]2C(O)[C@@H]1c2cc(-c3ccccn3)ncc2[C@H]2C[C@@H]1C2(C)C (stereo partly drawn)	> 5.01	0.295	–
Cn1cc(C(=O)C2CCCCC2)ccc1=O	> 1150	372	–
CC(C)NCCNC(=O)c1ccccc1Nc1c(Cl)cccc1Cl	> 200	14.8	–
COc1ccc(C[C@@H](CO)NC2=C(C#N)CCC2)cc1	> 200	64.6	–
CCOC(=O)c1c(NC(=O)c2cccs2)sc2c1CCCC2	> 151	> 151	–
CC(=O)Oc1c2c(c(OC(C)=O)c3c1C(=O)c1ccccc1C3=O)CCC([C@H](C)O)=C2	–	–	inactive
COc1ccc(C(c2cc3c(cc2O)OCO3)N2CCOCC2)c(OC)c1 (stereo not drawn)	> 95.5	7.94	–
O=[N+]([O-])c1ccc(OCCC[P+](c2ccccc2)(c2ccccc2)c2ccccc2)c(Cl)c1	> 200	1.7	–
N#Cc1c(N)nc2c(c(-c3ccc(Cl)cc3)nn2-c2ccccc2)c1C#N	> 200	> 200	–
CC(=O)NC1C(OCc2ccccc2)OC(CO)C(O)C1OCC(=O)NC(C)C(=O)NC(CCC(=O)NCCCCCNc1c2ccccc2nc2cccc([N+](=O)[O-])c12)C(N)=O (stereo not drawn)	> 200	0.0776	–
O=NNc1ccc(SSc2ccc(NN=O)cc2)cc1	> 200	79.4	–
FC(F)(F)c1cccnc1Sc1nc2ccccc2s1	> 200	38	–
Cc1cc2c(cc1-c1cc3c(cc1C)C(C(C)C)=C(O)C(=O)/C3=C\Nc1nc(-c3ccccc3)cs1)/C(=C/Nc1nc(-c3ccccc3)cs1)C(=O)C(O)=C2C(C)C	> 100	13.2	–
CCOC(=O)CSc1nc(N)c2c(-c3ccccc3)c3c(nc2n1)CCCC3	> 200	> 200	–
COc1ccc(C(CC(C)=O)c2c(O)c3ccccc3oc2=O)cc1OC (stereo not drawn)	> 200	> 200	–
COc1ccc(NC(=O)C/C(C)=N\N=C(N)N)c([N+](=O)[O-])c1	> 115	> 115	–
C=c1[nH]c(=O)c(=C)[nH]c1=O	> 72.4	26.3	–
O=C(NNCC(O)COc1ccccc1)c1ccccc1 (stereo not drawn)	> 200	> 200	–
Cc1nc2c3c(ncn2n1)Oc1c(c(-c2ccccc2)nn1-c1ccccc1)C3c1ccc(Cl)cc1 (stereo not drawn)	> 200	> 200	–
